From a melting point compilation (Tetko et al.; mined from patent text by program, amines drawn as free bases though some values may be those of a salt) come the findings set out here.

Some results are limits rather than exact numbers.

On to `CC(=O)OC(c1nccs1)(c1nccs1)C(F)(F)F`, for which the melting point (commonly the temperature of the solid-liquid transition) lay within 82 to 84 °C. Next, `CCOC(=O)C1=C(N)NC(C)=CC1c1cccc(Cl)c1` (stereo not drawn): 140 °C; `CC(C)C[C@H](N)[C@@H](O)CCS(=O)(=O)CCc1ccccc1`: 153 to 154 °C; `CC1N=C(c2ccccc2)c2cc(Cl)ccc2NC1=O` (stereo not drawn): 224 °C. Next, `COc1ccc(N(CCCC(=O)O)C(=O)CCN(C(C)=O)c2c(C)cccc2C)cc1`: 90 to 92 °C; `CC1(C)CCC(C)(C)c2cc(-c3cc(-c4ccc(C(=O)O)cc4)ccc3OCCCCCC(=O)O)ccc21`: 245 °C. `C=CCOc1ccc(CC(=O)O)cc1` came in with a melting point of 61 to 62 °C. The figure for `CCCCCCCCCCCc1cccc(Oc2c(N)nc(N)nc2CC)c1` is 97 to 99 °C; for `CN(C(=S)N[C@@H](Cc1ccc(NC(=O)c2c(Cl)cncc2Cl)cc1)C(=O)O)c1ccccc1C(=O)NCC1CCCCC1` it is 175 °C. Next, `Cc1c[nH]c2c(NC(=O)c3c(Cl)cccc3Cl)cccc2c1=O`: greater than 300 °C; `CC(C)(C)NC1=NS(=O)(=O)c2ccc(Cl)cc2N1`: 291 to 294 °C.

In turn, `CN1CCOc2cc(-c3cnc4[nH]cc(C(=O)C5(C)CCCCC5)c4n3)ccc21` yielded a melting point of 243 to 244 °C. Turning to `CC(C)C[C@H](NC(=O)Nc1cccc2ccccc12)C(=O)N[C@H]1CCOC1=O`, the melting point was in the range of 213 to 214 °C. `O=C(O)c1ccc(NCCC(c2ccc(Cl)cc2)c2ccc(Cl)cc2)cc1` returned a melting point of 213 to 215 °C.

For the compound `COc1c(C)cc2c(c1C)Cc1c-2[nH]c2ccc(C(C)C)cc12`, the melting point turned out to be 130 °C. `CC(=O)NC(C#N)NC(=O)c1cc(Cl)cc(Cl)c1` (stereo not drawn) showed a melting point of 227 to 228 °C. Next, `CCOC(=O)C(=O)Nc1ccccn1`: 73 to 75 °C; `O=C1c2ccccc2C(O)N1CCSc1ccncc1` (stereo not drawn): 112 °C. The figure for `CC(C)Cn1c(CO)c(-c2ccc(F)cc2)c2cc(OCc3ccccc3)ccc2c1=O` is 143 to 144 °C; for `CC(=O)Nc1ccc(-c2ccc3nc(-c4cccnc4N)n(-c4ccc(CN)cc4)c3n2)cc1` it is 245 to 248 °C; for `CCN1c2ncc(C=O)cc2C(=O)N(C)c2ccc(Cl)nc21` it is 199 to 201 °C. The figure for `Cc1oc(-c2ccccc2)nc1COc1cccc(CO)c1` is 101 to 102 °C; for `Cc1nc(C(N)=O)n(COCc2ccccc2)c1Sc1ccccc1` it is 153 to 154 °C. `Cc1ccc2c(c1)c(C)c1n2C(=O)C(Cc2nc[nH]c2C)CC1` (stereo not drawn) showed a melting point of 255 to 258 °C. The figure for `COC(=O)c1ccccc1NC(=O)N(C)CCO` is 90 °C. In the case of `Cc1c[nH]c(Cc2ccccc2[N+](=O)[O-])n1`, the melting point lay within 125 to 128 °C. Next, `COC(C)CC(=O)NC1CCC(CCN2CCN(c3nccc4c3OCC4)CC2)CC1` (racemic): 168 °C; `Nc1ccc(F)cc1CCN1CCN(c2nsc3ccccc23)CC1`: 115 °C; `N#Cc1ccccc1-c1ccc(CBr)c(Br)c1`: 152 to 153 °C. Next, `CN1CCC2(C)c3cc(OC(=O)OC(C)(C)C)cc(Br)c3N(C)C12` (stereo not drawn): 146 to 148 °C; `O=c1c2c(Cc3cccc(C(F)(F)F)c3)n[nH]c2c2cccnc2n1-c1ccccc1`: 303 to 305 °C; `COC(=O)c1c(Oc2ccc(Cl)cc2[N+](=O)[O-])c2ccccc2n1Cc1ccccc1`: 120 to 121 °C. The figure for `CC1CC(N)=NN1c1nc2ccccc2s1` (stereo not drawn) is 212 to 215 °C; for `Cc1oc(-c2ccccc2)nc1COc1ccc(CON=C(CC(=O)O)c2ccccc2)cc1` it is 107 to 108 °C. `CCCc1nn(-c2ccc(C(F)(F)F)cn2)cc1CCCOc1ccc(CC(=O)O)c(OC)c1` showed a melting point of 135 to 136 °C. Next, `CCOC(=O)/C(=N\OCC(=O)N1CCCCC1)c1csc(N)n1`: 151 to 152 °C; `CCCN1CCCC1CNC(=O)c1c(OC)ccc(Br)c1OC` (single isomer, unassigned; (-)): 103 to 104 °C. The figure for `COC(=O)c1cc(F)c(N2CCN(C(C)=O)CC2)nc1Nc1ccc(F)cc1F` is 172 to 173 °C; for `CCC(C)(C)O[C@H]1COC[C@H](NC(=O)c2nccc(OC)c2O)C(=O)O[C@@H](C)[C@@H]1OCC(C)C` it is 138 to 140 °C. `CC(C)(C)c1ccc(Nc2cccc3c2C(=O)N(C2CCC(=O)NC2=O)C3=O)cc1` (stereo not drawn) displayed a melting point of 228 to 230 °C. Consider `COc1ncccc1NC(=NC#N)NC(NC(=O)c1ccc(Cl)cc1)C(C)(Cl)Cl` (stereo not drawn), for which the melting point was in the range of 155 to 156 °C. In turn, `CCN(CC)CCCC(=O)O` yielded a melting point of 45 to 47 °C. The figure for `O=C(O)c1ccc(-c2ncn(-c3ccc(OC(F)(F)C(F)(F)F)cc3)n2)cc1` is 225 °C; for `CSC(C#N)c1cccc(C(=O)c2ccccc2)c1N` (stereo not drawn) it is 107 to 108 °C. The compound `CCOc1cc(C=O)ccc1OCc1nc(-c2ccco2)oc1C` returned a melting point of 159 to 160 °C. `COc1cccc(OC)c1-c1ccc(C[C@H](NC(=O)c2c(Cl)cccc2Cl)C(=O)O)cc1NC(C)=O` had a melting point of 142 to 144 °C. In turn, `Cc1c(C)n(CCF)c2c(OCc3ccccc3)nncc12` displayed a melting point of 106 to 107 °C. Next, `CCCCC(COc1ccc(-c2cccc(CC#N)c2)cc1)N(O)C=O` (stereo not drawn): 99 to 101 °C; `COc1cc(CCNc2ncnc3c(F)ccc(F)c23)ccc1Oc1ccc(C(F)(F)F)cn1`: 119 to 121 °C. In turn, `O=S1(=O)c2cccc3cccc(c23)N1CCCN1CC=C(c2c[nH]c3ccc(O)cc23)CC1` gave a melting point of 214 °C. The figure for `Cc1c(C)c2c(c(C)c1NC(=O)CC(C)(C)C)C(c1ccc(C(C)C)c(OCCO)c1)CO2` (stereo not drawn) is 155 to 156 °C; for `CCc1nc2c(N)nc3c(c2n1CC(C)(C)OCCS(C)(=O)=O)CCCC3` it is 225 to 227 °C.

The compound `CN1CCCCC1CNC(=O)Nc1cc(N2CC(c3ccccc3)CC2=O)ccn1` (stereo not drawn) displayed a melting point of 144 to 146 °C.

Turning to `COC(=O)c1cc(OCC=C(Cl)Cl)cc(Cl)c1OC`, the melting point is 103 °C. In the case of `CCCCC(=O)Nc1cccc(NC(=O)CC(C)=O)c1`, the melting point turned out to be 90 °C. As for `O=C(O)c1cccc(C(=O)C=Cc2cccc(C=Cc3ccc4ccccc4n3)c2)c1O`, the melting point fell in the range of 237 to 240 °C. Turning to `COc1ccc(C2(C3CCCC3=O)CCC(C(=O)O)CC2)c2c1OCCO2` (stereo not drawn), the melting point fell in the range of 200 to 201 °C.

Consider `COc1cc(C)c(C(=O)c2c(F)ncc(C)c2I)c(OC)c1OC`, for which the melting point was 140 to 141 °C. As for `CCOC(=O)c1ccc(OC2CCN(C(=O)OC(C)(C)C)CC2)cc1`, the melting point fell in the range of 76 to 78 °C.

For the compound `CCC1=CC(=O)c2ccccc2C1=O`, the melting point fell in the range of 87 to 88 °C. The figure for `CCOC(=O)c1cc(-n2c(=O)c3c(n(C)c2=O)CCC3)ccc1Cl` is 141 to 143 °C. `Oc1ccc2nc(-c3ccc(C45CC6CC(CC(C6)C4)C5)c(O)c3)[nH]c2c1` came in with a melting point of 250 to 252 °C.

In turn, `O=C(NCCO)c1cccc(-c2ccc3c(c2)C(Oc2cccc(C(F)(F)F)c2)CC3)c1` (stereo not drawn) registered a melting point of 157 to 158 °C. The figure for `Nc1ccc(CC(=O)O)cc1Br` is 139 to 140 °C; for `CCOP(=O)(OCC)C1=C(C(=O)OC(c2ccccc2)c2ccccc2)N2C(=O)C(NC(=O)COc3ccccc3)C2CC1` (stereo not drawn) it is 70 to 74 °C. For `Cc1ccc(O[C@@H]2CCNC[C@H]2O)cc1C` (relative stereo), the melting point lay in the range of 125 to 127 °C.

For `CC(=O)NS(=O)(=O)c1ccc(C2=C(c3cccc(F)c3)C(=O)C(C)(C)O2)cc1`, the melting point lay in the range of 178 to 179 °C. The figure for `O=C1c2nc3ccccn3c2C(=O)c2cccc(F)c21` is greater than 260 °C; for `COc1ccccc1N1CCN(CCCNC(=O)c2cc(OC(C)=O)cc3c(=O)c(C)c(-c4ccccc4)oc23)CC1` it is 148 to 149 °C.

On to `CN(N=C(Cl)c1c(F)cccc1Cl)S(=O)(=O)c1ccccc1`, for which the melting point lay within 103 to 105 °C.

As to `CCCOc1ccccc1-c1nc2ncncc2c(=O)n1N`, the melting point lay within 261 to 262 °C. As for `CC(C)(C)c1ccc(CN2CCC3(CC2)CC(=O)c2ccccc2O3)cc1`, the melting point was 149 to 151 °C. Next, `Nc1ccc(Cl)c(C(=O)NCCC23CC4CC(CC(C4)C2)C3)c1`: 147 to 149 °C; `O=C(Nc1ccc(-n2nc(C(F)(F)F)cc2C(F)(F)F)cc1)c1cccc(CO)c1`: 160 to 162 °C. On to `CCC(CO)c1ccc(N=C2SCCS2)cc1` (stereo not drawn), for which the melting point was 98.5 to 100 °C. `CC1CC(NCC(F)(F)F)=NN1c1ccc(Cl)cc1` (stereo not drawn) displayed a melting point of 63 to 64 °C. As to `Nc1c(F)c(N2CCC(c3ccccn3)C2)c(F)c2c1c(=O)c(C(=O)O)cn2C1CC1` (stereo not drawn), the melting point was in the range of 206 to 208 °C. The figure for `CC(C)(C)c1nnc(S)n(N)c1=O` is 209 to 212 °C. The figure for `COC(=O)N1CCN(c2ccn3nc(-c4ccccc4)c(-c4ccc(=O)n(C(C)C)n4)c3c2)CC1` is 206 to 207 °C; for `Cc1nc(Nc2ccc(Cl)cc2)sc1C(=O)c1sc(Nc2ccc(Cl)cc2)nc1C` it is 184 to 186 °C. Next, `CCCCOc1ccccc1C(=O)C=Cc1cc(OC)cc(OC)c1`: 69.5 to 70.1 °C; `COc1cc(Br)cc2c(N(C)C)cc(C)nc12`: 115 to 117 °C; `Cn1c(C(F)(F)F)cc(=O)n(-c2cc(OC3COC(=O)O3)c(Cl)cc2F)c1=O` (stereo not drawn): 165 to 167 °C. As for `COc1ccc(-c2nc(N)ncc2-c2ccc(=O)[nH]n2)cc1OC`, the melting point came to 225 °C. In turn, `Cc1c(Cl)cc(C=O)c(O)c1Cl` displayed a melting point of 94 to 95.1 °C. Compound `CCOC(=O)[C@@](CC)(CCCNCCc1c[nH]c2ccc(F)cc12)C(OCC)OCC` returned a melting point of 100 °C. Next, `CCOCc1cc2cc(Br)ccc2oc1=Nc1ccc(C)cc1`: 116 to 117 °C. Next, `COc1ccc(SCCCCN2C(=O)c3ccccc3C2=O)cc1`: 61 to 62 °C.
